Results on 2 sequences are retold here after patent US20260042799A1, “APPLICATION OF PEPTIDE IN PREPARING DRUGS FOR TREATING AND/OR PREVENTING COGNITIVE IMPAIRMENT” (HUAZHONG UNIVERSITY OF SCIENCE AND TECHNOLOGY, priority 2024, published 2026).

“Also recorded” adds a separate entry of the source. Where no end group is shown, it is not given here.

Series [1] deals with P301S mice. Put plainly: Novel object recognition test. It is filed as in vivo. Conditions: 15 mg/kg subcutaneous, 14 days. From the text:
(§1) FIG. 3A to FIG. 3J show the statistical chart of TAT-P6 peptide improving mouse learning memory ability results. FIGS. 3A-B are behavioral experiments for four groups of mice (C57 mice injected with TAT-S6 group, C57 mice injected with TAT-P6 group, P301S mice injected with TAT-S6 group, P301S mice injected with TAT-P6 group) using open field test system.
(§2) Male P301S mice 6-8 months old (purchased from Jackson Laboratory), C57/BL6 mice 6-8 months old (purchased from Beijing Vital River Laboratory Animal Technology Co., Ltd.), SPF grade, weight 20-25 grams, raised in conventional environment.
• 1) Mouse spatial memory detection: novel object recognition and water maze; • a) Novel object recognition: Before conducting the novel object recognition test, it is necessary to eliminate unfamiliarity with the mice by petting them daily to prevent stimulation during operation. The first stage is adaptation period. […] Within 5 min (many experiments have proven that after 2 min of familiarization period, animals already show good preference for novel objects, and of course, 3 min of familiarization makes the preference more obvious), the number of times, time, and distance the animal explores each object are measured. […] If the platform is not found within 90 s, the system automatically stops recording, and the latency period is recorded as 90 s. […]

The subject of series [2] is P301S mice. Put plainly: Open field test, P301S mice. It is filed as in vivo. Conditions: C57 and P301S mice, 15 mg/kg subcutaneous, 14 days.
Excerpt: as §1, §2
Open field experiment: The open field experiment is an experiment in which animals are placed in a closed open metal box area with a length of 80 cm, width of 80 cm, and height of 50 cm to observe mouse activity. This area is divided into squares, and typically the number of squares crossed by mice within a given time is counted to examine the anxiety emotional state and movement ability of the experimental mice. […] The experimental area is set up on the computer, the experimental area is divided equally into a “ ? ” shape, with the innermost circle as the central region and the outermost as the peripheral region, then the camera is turned on, the light source is adjusted, and information such as the position, movement route, and distance of the experimental mice is recorded using the computer. […]

The test system of series [3] is P301S mice. Description: Morris water maze test. To be noted: detection stage on the 8th day, 15 mg/kg subcutaneous, 14 days. It is filed as in vivo.
Excerpt: as §1, §2
• 1) Mouse spatial memory detection: novel object recognition and water maze; • a) Novel object recognition: Before conducting the novel object recognition test, it is necessary to eliminate unfamiliarity with the mice by petting them daily to prevent stimulation during operation. The first stage is adaptation period. Mice move freely in the experimental device (without objects) for 10 minutes. The second stage is familiarization period. […] Within 5 min (many experiments have proven that after 2 min of familiarization period, animals already show good preference for novel objects, and of course, 3 min of familiarization makes the preference more obvious), the number of times, time, and distance the animal explores each object are measured. […] During training, the mouse is gently placed in the water from a ½ radian position of any quadrant with its head facing the pool wall, and its latency period (the time taken by the mouse to find the platform from entering the water) and path are detected as indicators to measure the mouse's learning memory and test performance. […] If the platform is not found within 90 s, the system automatically stops recording, and the latency period is recorded as 90 s. […] The initial training period is 6 days, with daily recording of the time needed for mice to find the platform, recorded as the latency period required for mice to find the platform. […]

The target of series [4] is T1, binding between HA-GluA2 and EGFP-Syn2b (Homo sapiens, UniProt P42262).
T1 construct: HA; expressed in transfected cells; host or cells: HEK293T
Put plainly: Co-immunoprecipitation/immunoblotting of Syn2b-GluA2 binding in co-transfected HEK293T cells. It counts as cell-based. To be noted: 10 μM peptide in culture medium for 90 minutes, 48 hours after transfection. The protocol:
First, HA-GluA2 and EGFP-Syn2b overexpression plasmids were transfected into HEK293T cells. After 48 hours of transfection, 10 μM concentration of TAT-P6 and TAT-S6 peptides were given in the cell culture medium for 90 minutes, […] and then cells were collected. The overexpressed Syn2b protein is a fusion protein of Syn2b and GFP, using anti-GFP antibody to precipitate cellular proteins, and then using anti-GluA2 antibody to detect the precipitated proteins, the black imprint on the NC membrane indicates the interaction between GluA2 and Syn2b.
Open field experiment: The open field experiment is an experiment in which animals are placed in a closed open metal box area with a length of 80 cm, width of 80 cm, and height of 50 cm to observe mouse activity. This area is divided into squares, and typically the number of squares crossed by mice within a given time is counted to examine the anxiety emotional state and movement ability of the experimental mice. […] Recording is stopped after observing for a certain time, generally about 5 minutes. • 3) Quantify mouse hippocampal related protein content: immunoblotting; • 4) Disrupting the binding of Syn2b and GluA2 in HEK 293T cells: co-immunoprecipitation, immunoblotting. […]
Background: A western blot detects proteins with antibodies after separation by electrophoresis.

A short description of series [5]: Solubility of the synthesized peptide in water. It counts as physicochemical. To be noted: white powder. From the text: The sequence of TAT-P6 is shown in SEQ ID NO:3, artificially synthesized by Jiangsu Qiangyao Biotechnology Co., Ltd., and the mass spectrometry analysis is shown in FIG. 1. […] The sequence of TAT-S6 is shown in SEQ ID NO:4, also synthesized by the same company.

T1 sequence (P42262 25-883): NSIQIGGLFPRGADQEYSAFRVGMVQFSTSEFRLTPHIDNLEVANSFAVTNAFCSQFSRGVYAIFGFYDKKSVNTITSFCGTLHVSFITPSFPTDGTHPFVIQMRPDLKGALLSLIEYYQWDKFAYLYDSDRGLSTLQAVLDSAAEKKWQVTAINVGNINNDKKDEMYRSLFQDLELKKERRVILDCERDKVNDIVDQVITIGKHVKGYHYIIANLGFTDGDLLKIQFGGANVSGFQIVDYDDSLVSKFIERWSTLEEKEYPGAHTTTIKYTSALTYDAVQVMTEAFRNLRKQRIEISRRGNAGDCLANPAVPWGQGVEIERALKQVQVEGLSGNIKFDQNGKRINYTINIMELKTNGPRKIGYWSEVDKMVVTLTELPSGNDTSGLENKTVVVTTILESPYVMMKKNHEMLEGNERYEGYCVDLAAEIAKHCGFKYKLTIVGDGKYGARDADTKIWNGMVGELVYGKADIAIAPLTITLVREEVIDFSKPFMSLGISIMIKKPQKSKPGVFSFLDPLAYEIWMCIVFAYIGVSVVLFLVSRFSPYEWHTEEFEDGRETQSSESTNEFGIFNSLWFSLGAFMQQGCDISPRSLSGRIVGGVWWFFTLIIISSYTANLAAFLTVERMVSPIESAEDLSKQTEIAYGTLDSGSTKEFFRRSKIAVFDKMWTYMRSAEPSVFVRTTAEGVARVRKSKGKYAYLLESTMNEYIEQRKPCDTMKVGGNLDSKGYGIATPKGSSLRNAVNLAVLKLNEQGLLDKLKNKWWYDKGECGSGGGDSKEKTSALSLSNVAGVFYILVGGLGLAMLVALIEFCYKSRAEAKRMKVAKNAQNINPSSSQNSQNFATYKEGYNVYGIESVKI

For YGRKKRRQRRRCNDILY [TAT-S6], in the series on P301S mice [1], the “time spent at the new object” value is “spent less time at the new object”. The “movement ability of mice” value in the series on P301S mice [2] was “did not change the movement ability”. Besides, in the series with P301S mice [3], the “latency to reach the platform in the water maze” value is given as “prolonged latency to reach the platform”, the “number of times crossing the platform position in the water maze” value is reported as “crossed the platform significantly fewer times” and the “time spent in the target quadrant in the water maze” value is recorded as “spent significantly less time in the target quadrant”. In addition, the “GluA2 detected by anti-GluA2 antibody in anti-GFP (Syn2b) precipitate; interaction between Syn2b and GluA2” value in series [4] is listed as “could be clearly detected”.

For “YGRKKRRQRRRYILDCN [TAT-P6, YGRKKRRQRRRYILDCN]”, the solubility in water result in series [5] is recorded as “completely soluble; also recorded: completely dissolved in water”.
